Data set [1] in a line: Water-solubility (dissolving in refined water for the NBT test). Conditions: NBT evaluation impossible. It counts as physicochemical. On the procedure:
Then the formed formazan was quantified on spectro-chemical analysis. Either of the present physiologically active extracts was dissolved in a refined water to give an appropriate concentration, and the solutions were used for test samples. As a control it was provided by replacing the test samples with a refined water. The 50% inhibitory activity for the formation of formazan in the control was defined as a one unit activity of radical-entrapping action. Based of the definition, the radical-entrapping activity of one gram of each test sample was determined.
Particularly, the radical-entrapping action of the physiologically active substance of Experiment 1 and Compounds 5 and 6 of Experiment 2 was remarkable.

The subject of data set [2] is U-937 cells. As to the kind of experiment: Apoptosis controlling action, propidium iodide flow cytometry. It counts as cell-based, human. As to conditions: U-937 cells (5 × 10^5 cells/ml). The protocol: (§1) The solution was distributed to a microplate in one milliliter per well, and the solution in each well was diluted in series with a fresh preparation of the same medium as used in the above.
(§2) HL-60 cells, ATCC CCL-240, derived from a patient with acute promyelocytic leukemia; U-937 cells, ATCC CRL-1593.2, derived from a patient with human histiocytic lymphoma; HGC-27 cells, RCB0500, derived from a patient with gastric cancer; HLC-1 cells, RCB0083, derived from a patient with lung adenocarcinoma; and C6 cells, ATCC CCL-107, derived from rat glial tumor, were respectively suspended in RPMI1640 medium (pH 7.2) to give a cell density of 1×10^6 cells/ml or 2×10^5 cells/ml. To the microplate, containing a one milliliter dilution of 20, 10 or 5.0 μg/ml of Compound 1, was added one milliliter per well of either of the above cell suspensions and used for test systems. All the test systems were made duplex and respectively subjected to 24- and 48-hour incubations in a 5 v/v % CO2 incubator at 37° C. A system free of Compound 1 was provided and treated similarly as above and used for control.
(§3) According to the method by I. Nicoletti et al. in Journal of Immunological Methods, Vol. 139, pp. 271-279 (1991), the apoptosis-induced cells in the test systems and control were stained by propidium iodide and determined for the percentage of the stained cells to the total cells in such a manner that transferring each of the cultures to polypropylene tubes, centrifuging the tubes, removing the resulting supernatants, washing the cells' sediments with phosphate buffered saline containing 0.3 v/v % calf serum albumin, and further centrifuging the washed cells to remove supernatants. The newly formed sediments were respectively mixed with 50 μg/ml of propidium iodide commercialized by Sigma Chemical Company, St. Louis, Mo., USA, 0.1 w/v % sodium citrate, and0.1 w/v % “TRITON X-100”, a surfactant commercialized by Sigma Chemical Company, St. Louis, Mo., USA, in respective volumes of 1.5 ml to stain the cells by propidium iodide. The stained cells were stored at 4° C. in the dark overnight. The stained cells of each test system were analyzed on “EPICS PROFILE II”, a flow cytometry commercialized by Beckman Coulter, Inc., CA, USA. Based on the data the percentage of the stained cells to the total cells in each test system was measured for apoptosis occurrence.
A general note: Flow cytometry measures light scatter and fluorescence of single cells or particles in a stream.

Data set [3] deals with HGC-27 cells. The description is as above. The format is cell-based, human. As to conditions: HGC-27 cells (1 × 10^5 cells/ml). On the procedure:
as §1, §2, §3

Data set [4] relates to HL-60 cells. Described as above. The format is cell-based, human. Conditions: HL-60 cells (5 × 10^5 cells/ml). The protocol:
as §1, §2, §3

Data set [5] has as its system Helicobacter pylori (NCTC 11638). As to the kind of experiment: Antiseptic action: MIC, agar plate dilution method. It counts as cell-based.

In brackets after ≈: the same amount, converted by molar mass.

In the case of `O=C1c2ccccc2-n2c1nc1ccccc1c2=O` [Compound 1, 6,12-dihydro-6,12-dioxoindolo[2,1-b]quinazoline], in data set [1], the Water-solubility entry is reported as “insufficient water-solubility”. Moreover, the Apoptosis occurrence came to 3.2% in data set [2] (24 hours, 2.5 μg/ml, control 3.2); 5.0% in data set [2] (24 hours, 5.0 μg/ml, control 3.2); 6.8% in data set [2] (24 hours, 10 μg/ml, control 3.2); 5.2% in data set [2] (48 hours, 2.5 μg/ml, control 4.5); 11.7% in data set [2] (48 hours, 5.0 μg/ml, control 4.5); 66.9% in data set [2] (48 hours, 10 μg/ml, control 4.5). Besides, the Apoptosis occurrence in data set [3] (24 hours, 2.5 μg/ml, control 1.5) came out at 1.9%; in data set [3] (24 hours, 5.0 μg/ml, control 1.5), 1.7%; in data set [3] (24 hours, 10 μg/ml, control 1.5), 3.5%; in data set [3] (48 hours, 2.5 μg/ml, control 1.4), 2.2%; in data set [3] (48 hours, 5.0 μg/ml, control 1.4), 4.1%; in data set [3] (48 hours, 10 μg/ml, control 1.4), 14.1%. For the same compound, the Apoptosis occurrence is recorded as 0.7% in data set [4] (24 hours, 2.5 μg/ml, control 0.7); 1.7% in data set [4] (24 hours, 5.0 μg/ml, control 0.7); 11.8% in data set [4] (24 hours, 10 μg/ml, control 0.7); 1.3% in data set [4] (48 hours, 2.5 μg/ml, control 1.5); 4.2% in data set [4] (48 hours, 5.0 μg/ml, control 1.5); 22.6% in data set [4] (48 hours, 10 μg/ml, control 1.5). Also, in data set [5] (Helicobacter pylori, NCTC11638, read-out: Minimum inhibitory concentration), the MIC was determined as 2.5 µg/mL (≈ 10.1 µM). The “Inhibition of the growth of Helicobacter pylori (in words)” value in data set [5] (comment on Table 8) was “strongly inhibited the growth”.

Source of the values: patent US6524625B2, “Physiologically active extract obtained from indigo plant polygonum tinctorium” (Kabushiki Kaisha Hayashibara Seibutsu Kagaku Kenkyuto, priority 1998, dated 2003).
